Two molecules from article PMC7006505, “Chemical biology tools for probing transcytosis at the blood–brain barrier” (Chemical Science, 2019) can be followed below.

For this data set, the system named is bEnd.3/MSC co-culture. Briefly: Transcytosis assay, transwell in vitro BBB model with dex-TexR correction (cPapp). It counts as in vitro ADME, mouse. Particulars: apical to basolateral, 37 °C. The text has this:
To study transcytosis potential of the vehicles in vitro we optimised a BBB model using a 3D-transwell format. […] This is similar to results shown by others.[16] Immunostaining for TJ protein ZO-1 in the bEnd.3 cell line confirmed its presence and trafficking towards the cell junctions (Fig. S7 ^†).
It seemed plausible that a similar sized marker (such as TexasRed labelled dextran (dex-TexR; 3000 g mol^–1)) that is incapable of AMT or RMT uptake could serve as an internal standard to quantify paracellular contribution of the vehicles. As exemplified in Fig. 4A, experiments are performed in parallel with probes (both dex-TexR and FAM-PPII vehicle or Tf-A647) fed to insets containing either the cell monolayer (PSt) or filter alone (PSf). The corresponding Papp for dex-TexR in both scenarios is first calculated and the extent in which movement is reduced by presence of the monolayer (defined here as the transport ratio (TR)) is used to determine the expected paracellular diffusion rate of the individual vehicles. We employed Tf-A647 and a similarly sized TexasRed labelled dextran (dex-TexR; 70 000 g mol^–1) as a positive control for transcytosis. […] When incubated in the presence of cells, dex-TexR was detected in the basolateral compartment indicating background paracellular flux. However, Tf-A647 was cleared at a faster rate in comparison, confirming transcytosis of the molecule.
Fig. 4 Modified workflow and results for determining the cPapp of a macromolecule, accounting for contributions made by paracellular diffusion across an in vitro barrier. […] (B–C) Clearance plots obtained by incubation of Tf-A647 or dex-TexR with filters alone (B; PSf) or with cells (C; PSt). […] Division of PSt/PSf for dextran generates the transport ratio (TR). Expected paracellular contribution of the vehicle is obtained by multiplying TR by the Papp of the compound of interest without cells. cPapp values are obtained by subtracting this value from Papp of compound with cells. Key: red = dex-TexR; blue = Tf-A647; dashed lines = filter insert only; solid lines = transwell culture (D) cPapp values for delivery vehicles screened in the transcytosis assay.
(3 × 1 mL), and trypsinisation was conducted using a solution of 0.25 % (w/v) trypsin-EDTA solution (0.5 mL, 3 min, 37 °C, 5 % CO2 incubation), unless otherwise specified. When required, a Scan Speed 1580R centrifuge (Labmode) was used to pellet cell suspensions. All tissue culture work was performed in sterilised Corning well plates, and cell based assays used DMEM media (ThermoFisher, #31053028) without FCS and phenol red, unless otherwise specified. bEND.3 cells were a gift from Rachael Brown (Kings College London), while MSC cells were a gift from the Battaglia group (University College London).
Cells were maintained in high glucose Dulbecco’s Modified Eagle’s Medium (DMEM) (ATCC #30-2002) supplemented with 10 % FCS. Cells were sub-cultured routinely using trypsin solution once 100 % confluence was achieved. For uptake and transcytosis studies, cells under passage number 30 were used. After this time, these cells may begin to lose their barr ier functionality, as identified from an extensive study performed by Brown et al.1 Mesenchymal stem cells (MSC)
MSC, as surrogates for pericytes, were maintained in DMEM/F12 medium containing GlutaMAX and L-glutamine (2 mM) (ThermoFisher, #10565-018), supplemented with 10 % FCS and 5 μg/mL Gentamicin (SIGMA, G1397). Cultures were sub -cultured routinely using trypsin solution once 70 -80 % confluence was achieved.
For all transcytosis assays, polyester filter inserts (Corning, #3460; 0.4 µm pore, 12 mm diameter, 10 µm thick) were used in 12-well cell culture plates. Optimum media volumes were calculated to be 950 µL and 475 µL for apical and basolateral chambers respectively. Both chambers were coated with rat tail collagen (5 µg/cm2) for 2 h at room temperature prior to use. bEND.3 cells were seeded at a density of 2 × 10^4 cells/well onto insets, and grown to […]

Molecules are shown by their SMILES.

As for `CC[C@H](C)[C@H](NC(=O)[C@H](C)NC(=O)[C@@H](N)Cc1c[nH]cn1)C(=O)N[C@@H](Cc1ccc(O)cc1)C(=O)N1CCC[C@H]1C(=O)N[C@@H](CCCNC(=N)N)C(=O)N[C@@H](Cc1c[nH]cn1)C(=O)NCCCC[C@H](NC(=O)[C@H](CCCNC(=N)N)NC(=O)[C@@H](NC(=O)[C@@H]1CCCN1C(=O)[C@@H]1CCCN1C(=O)[C@@H]1CCCN1C(=O)[C@H](CC(C)C)NC(=O)[C@H](CCCNC(=N)N)NC(=O)[C@@H](NC(=O)[C@@H]1CCCN1C(=O)[C@@H]1CCCN1C(=O)[C@@H]1CCCN1C(=O)[C@H](Cc1cn(CCCC[C@H](N)C(=O)N[C@H](C(=O)N[C@@H](Cc2ccccc2)C(=O)N[C@@H](Cc2ccccc2)C(=O)N[C@@H](Cc2ccc(O)cc2)C(=O)NCC(=O)NCC(=O)N[C@@H](CO)C(=O)N[C@@H](CCCNC(=N)N)C(=O)NCC(=O)N[C@@H](CCCCN)C(=O)N[C@@H](CCCNC(=N)N)C(=O)N[C@@H](CC(N)=O)C(=O)N[C@@H](CC(N)=O)C(=O)N[C@@H](Cc2ccccc2)C(=O)N[C@@H](CCCCN)C(=O)N[C@H](C(=O)N[C@@H](CCC(=O)O)C(=O)N[C@@H](CCC(=O)O)C(=O)N[C@@H](Cc2ccc(O)cc2)C(N)=O)[C@@H](C)O)[C@@H](C)O)nn1)NC(=O)[C@H](CCCNC(=N)N)NC(=O)[C@@H](NC(=O)c1ccc2c(c1)C(=O)OC21c2ccc(O)cc2Oc2cc(O)ccc21)C(C)C)C(C)C)C(C)C)C(=O)N1CCC[C@H]1C(=O)N1CCC[C@H]1C(=O)N1CCC[C@H]1C(N)=O` [PPII(L3X;L15K)TfRL2(K);APep2(X)], under “bEnd.3/MSC co-culture on polyester transwell inserts (0.4 µm pore), 0.5 µM vehicle with 5 µM dex-TexR (3000 Da), DMEM without FCS after 1 h serum starvation, fluorescence read-out, three inserts with and without culture, paracellular contribution subtracted”, the “fold increase in permeability (cPapp) relative to Tf-A647” value stood at 1.8 fold. For the molecule `CC(C)C[C@H](NC(=O)[C@H](CCCNC(=N)N)NC(=O)[C@@H](NC(=O)[C@@H]1CCCN1C(=O)[C@@H]1CCCN1C(=O)[C@@H]1CCCN1C(=O)[C@H](Cc1cn(CCCC[C@H](N)C(=O)N[C@H](C(=O)N[C@@H](Cc2ccccc2)C(=O)N[C@@H](Cc2ccccc2)C(=O)N[C@@H](Cc2ccc(O)cc2)C(=O)NCC(=O)NCC(=O)N[C@@H](CO)C(=O)N[C@@H](CCCNC(=N)N)C(=O)NCC(=O)N[C@@H](CCCCN)C(=O)N[C@@H](CCCNC(=N)N)C(=O)N[C@@H](CC(N)=O)C(=O)N[C@@H](CC(N)=O)C(=O)N[C@@H](Cc2ccccc2)C(=O)N[C@@H](CCCCN)C(=O)N[C@H](C(=O)N[C@@H](CCC(=O)O)C(=O)N[C@@H](CCC(=O)O)C(=O)N[C@@H](Cc2ccc(O)cc2)C(N)=O)[C@@H](C)O)[C@@H](C)O)nn1)NC(=O)[C@H](CCCNC(=N)N)NC(=O)[C@@H](NC(=O)c1ccc2c(c1)C(=O)OC21c2ccc(O)cc2Oc2cc(O)ccc21)C(C)C)C(C)C)C(=O)N1CCC[C@H]1C(=O)N1CCC[C@H]1C(=O)N1CCC[C@H]1C(=O)N[C@H](C(=O)N[C@@H](CCCNC(=N)N)C(=O)N[C@@H](Cc1cn(CCCC[C@H](N)C(=O)N[C@H](C(=O)N[C@@H](Cc2ccccc2)C(=O)N[C@@H](Cc2ccccc2)C(=O)N[C@@H](Cc2ccc(O)cc2)C(=O)NCC(=O)NCC(=O)N[C@@H](CO)C(=O)N[C@@H](CCCNC(=N)N)C(=O)NCC(=O)N[C@@H](CCCCN)C(=O)N[C@@H](CCCNC(=N)N)C(=O)N[C@@H](CC(N)=O)C(=O)N[C@@H](CC(N)=O)C(=O)N[C@@H](Cc2ccccc2)C(=O)N[C@@H](CCCCN)C(=O)N[C@H](C(=O)N[C@@H](CCC(=O)O)C(=O)N[C@@H](CCC(=O)O)C(=O)N[C@@H](Cc2ccc(O)cc2)C(N)=O)[C@@H](C)O)[C@@H](C)O)nn1)C(=O)N1CCC[C@H]1C(=O)N1CCC[C@H]1C(=O)N1CCC[C@H]1C(N)=O)C(C)C` [PPII(L3X;L15X)APep2], the “transcytosis / permeability in BBB model, in words” value (bEnd.3/MSC transwell, 0.5 µM vehicle, cPapp) is on record as “limited transcytosis”.
